Counter-ions that a name gives are not always drawn.
Columns and labels:
[1] = target: Vasopressin 1 (V1) receptor (Homo sapiens, UniProt P37288); experiment: Vasopressin 1 (V1) Receptor Binding; conditions: competition with 1.5 nM 3H-vasopressin, platelet membrane preparation from blood of normal subjects, 15 minutes at 30° C.
human V2 receptor = human V2 receptor (Homo sapiens, UniProt P30518); experiment: Vasopressin 2 (V2) Receptor Binding; conditions: competition with 0.5 nM 3H-vasopressin, membranes of CHO cells expressing human V2 receptor, 2 hours at 22° C.
Chain of human V2 receptor (P30518 whole entry): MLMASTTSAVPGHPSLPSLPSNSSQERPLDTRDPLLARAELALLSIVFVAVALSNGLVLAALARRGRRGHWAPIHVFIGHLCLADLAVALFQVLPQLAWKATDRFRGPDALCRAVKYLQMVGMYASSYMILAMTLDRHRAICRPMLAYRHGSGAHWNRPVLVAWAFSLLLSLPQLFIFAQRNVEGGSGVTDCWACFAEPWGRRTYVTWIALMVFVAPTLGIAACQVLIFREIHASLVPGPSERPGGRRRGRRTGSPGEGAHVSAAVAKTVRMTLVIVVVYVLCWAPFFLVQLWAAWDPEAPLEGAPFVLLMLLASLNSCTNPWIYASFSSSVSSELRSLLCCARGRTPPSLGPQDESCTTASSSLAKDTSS

Chain of Vasopressin 1 (V1) receptor (P37288 whole entry): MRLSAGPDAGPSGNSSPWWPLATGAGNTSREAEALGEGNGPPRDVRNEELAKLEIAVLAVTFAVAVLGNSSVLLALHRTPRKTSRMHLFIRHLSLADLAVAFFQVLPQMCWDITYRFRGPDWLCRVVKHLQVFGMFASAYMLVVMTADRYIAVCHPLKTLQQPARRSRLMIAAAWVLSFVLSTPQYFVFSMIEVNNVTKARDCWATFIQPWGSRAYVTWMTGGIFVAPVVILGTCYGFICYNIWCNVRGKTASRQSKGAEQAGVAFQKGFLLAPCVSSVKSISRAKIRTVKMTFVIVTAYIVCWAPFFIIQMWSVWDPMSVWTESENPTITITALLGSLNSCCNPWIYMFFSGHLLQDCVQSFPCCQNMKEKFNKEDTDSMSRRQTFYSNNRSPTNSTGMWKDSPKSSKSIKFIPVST

IC50 [1] [nM] | IC50 (human V2 receptor) [nM] | Compound
31 | 1300 | CCOC(=O)CCCCCOc1cc(C)ccc1N(C)C(=O)c1ccc(NC(=O)c2ccccc2OCCCN)cc1 [17-20), 4-[2-(3-Aminoprop-1-yl)oxybenzoyl]amino-N-[2-(5-ethoxycarbonylpent-1-yl)oxy-4-methyl]phenyl-N-methylbenzamide hydrochoiride]
14 | 1400 | CN1CCN(C(=O)CCCCCOc2ccccc2N(C)C(=O)c2ccc(NC(=O)c3ccccc3OCCCN)cc2)CC1 [Example 16, 4-[2-[(3-aminoprop-1-yl)oxy]benzoyl]amino-N-methyl-N-[2-[5-(4-methylpiperazin-1-yl)carbonylpent-1-yloxy]phenyl]benzamide dihydrochloride]
51 | 1300 | Cc1ccc(N(C)C(=O)c2ccc(NC(=O)c3ccccc3N)cc2)c(OCCCCCC(=O)O)c1 [5-2), 4-(2-Aminobenzoyl)amino-N-methyl-N-[2-(5-carboxypent-1-yloxy)-4-methylphenyl]benzamide]
